According to ChEMBL document CHEMBL1143233, “Synthesis, characterization and evaluation of benzimidazole derivative and its precursors as inhibitors of MDA-MB-231 human breast cancer cell proliferation” (2008):

What follows are molecules tested on MDA-MB-231 (assay: Antiproliferative activity against human MDA-MB-231 cells at 2 mM after 72 hrs by MTS/PMS assay). Details: MDA-MB-231, 72 h.

Row | Structure (SMILES) | inhibition at 2000 µM [%]
1 | N#Cc1ccc(NC(=O)c2ccc(NCc3ccc(F)cc3)c([N+](=O)[O-])c2)cc1C(F)(F)F | 0
2 | N#Cc1ccc(NC(=O)c2ccc(NCc3ccc(F)cc3)c(NC(=O)c3ccc(Cl)cc3Cl)c2)cc1C(F)(F)F | 0
3 | N#Cc1ccc(NC(=O)c2ccc3c(c2)nc(-c2ccc(Cl)cc2Cl)n3Cc2ccc(F)cc2)cc1C(F)(F)F | 26.1
4 | N#Cc1ccc(NC(=O)c2ccc(NCc3ccc(F)cc3)c(N)c2)cc1C(F)(F)F | 9.8
5 | N#Cc1ccc(NC(=O)c2ccc(F)c([N+](=O)[O-])c2)cc1C(F)(F)F | 60
